Test results reported in publication PMC5913751 (Peptides, 2018).
Read-outs that look alike come from different tables or passages of the source. Where no end group is shown, it is not given here.

Key:
[1] = tested on: S.aureus; details: cited from earlier work
[2] = tested on: gram-negative bacteria, mostly E.coli and P. aeruginosa; details: range stated jointly; ref Table 5.0 ([28], [30]–[32]); cited from earlier work
[3] = tested on: P.aeruginosa; details: cited from earlier work
[4] = tested on: E.coli; details: cited from earlier work
[5] = tested on: sheep erythrocytes; assay: Hemolysis assay; assay type: cell-based; details: sheep erythrocytes in PBS, 37°C 18–24 hours, absorbance 567 nm
[6] = tested on: Bacilius subtilis; details: cited from earlier work
[7] = tested on: Fungus; details: cited from earlier work
[8] = tested on: R. solani Khun; details: against R. solani Khun; ref [34]; cited from earlier work

Compound: Cecropin B (KWKVFKKIEKMGRNIRNGIVKAGPAIAVLGEAKAL; ends and bridges not checked; UniProt P01508 27-61, looked up)
- MIC values S.aureus ([1]; ref [31]): >128 µg/mL
- MIC range against different strains of gram-negative bacteria [2]: 2 to 20 µg/mL
- MIC values P.aeruginosa ([3]; ref [28]): 2.5 µg/mL
- MIC values P.aeruginosa ([3]; ref [30]): >100 µg/mL
- MIC values E.coli ([4]; ref [28]): 2.5 µg/mL
- MIC values E.coli ([4]; ref [30]): 2 µg/mL
- MIC values E.coli ([4]; ref [31]): 16 µg/mL

Compound: CC[C@H](C)[C@H](NC(=O)CN)C(=O)NCC(=O)N[C@@H](C)C(=O)N[C@H](C(=O)N[C@@H](CC(C)C)C(=O)N[C@@H](CCCCN)C(=O)N[C@H](C(=O)N[C@@H](CC(C)C)C(=O)N[C@H](C(=O)N[C@H](C(=O)NCC(=O)N[C@@H](CC(C)C)C(=O)N1CCC[C@H]1C(=O)N[C@@H](C)C(=O)N[C@@H](CC(C)C)C(=O)N[C@H](C(=O)N[C@@H](CO)C(=O)N[C@@H](Cc1c[nH]c2ccccc12)C(=O)N[C@H](C(=O)N[C@@H](CCCCN)C(=O)N[C@@H](CCCNC(=N)N)C(=O)N[C@@H](CCCCN)C(=O)N[C@@H](CCCNC(=N)N)C(=O)N[C@@H](CCC(N)=O)C(=O)N[C@@H](CCC(N)=O)C(N)=O)[C@@H](C)CC)[C@@H](C)CC)[C@@H](C)O)[C@@H](C)O)C(C)C)C(C)C [Melittin]
- concentration at which RBCs are lysed [5]: ≥ 12500 ng/mL

Compound: Cecropin A (KWKLFKKIEKVGQNIRDGIIKAGPAVAVVGQATQIAK; ends and bridges not checked; UniProt P01507 27-63, looked up)
- MIC range against different strains of gram-negative bacteria [2]: 2 to 20 µg/mL
- MIC values P.aeruginosa ([3]; ref [28]): 2.5 µg/mL
- MIC values E.coli ([4]; ref [28]): 2.5 µg/mL

Compound: Sapecin
- MIC values S.aureus ([1]; ref [36]): 5.0 µg/mL
- MIC values Bacilius subtilis ([6]; ref [36]): 20 to 39 µg/mL
- MIC values E.coli ([4]; ref [36]): >78.0 µg/mL

Compound: Bactrocerin-1
- MIC values S.aureus ([1]; ref [37]): 6.5 µg/mL
- MIC values Fungus ([7]; ref [37]): 26.0 to 104.7 µg/mL
- MIC values Bacilius subtilis ([6]; ref [37]): 13.0 µg/mL
- MIC values E.coli ([4]; ref [37]): >232.5 µg/mL

Compound: Oh-defensin
- MIC values S.aureus ([1]; ref [39]): 1.25 µg/mL
- MIC values Fungus ([7]; ref [39]): 1.3 µg/mL
- MIC values E.coli ([4]; ref [39]): 1.3 µg/mL

Compound: Galleria defensin
- MIC values Fungus ([7]; ref [38]): 14.7 to 29.5 µg/mL

Compound: Trx-stomoxynZH1
- MIC values Fungus [8]: > 98 against R. solani Khun μg/ml
- MIC values S.aureus ([1]; ref [34]): 27 to 54 µg/mL
- MIC values E.coli ([4]; ref [34]): 15 to 30 µg/mL

Compound: Cecropin P1
- MIC range against different strains of gram-negative bacteria [2]: 2 to 20 µg/mL
- MIC values P.aeruginosa ([3]; ref [32]): 4 to 64 µg/mL
- MIC values E.coli ([4]; ref [32]): 0.12 to 4 µg/mL
